# Results as given in patent publication US20160030438A1, “ANTI-TUMORAL COMPOSITION COMPRISING A PI3KBETA INHIBITOR AND A RAF INHIBITOR, TO OVERCOME CANCER CELLS RESISTANCE” (SANOFI, priority 2013, published 2016).
# Key:
# Type in all cases: cell-based
# [1] = tested on: human melanoma cell line WM-266-4; test: In vitro pro-apoptotic activity (PARP cleavage western blot) in WM-266-4, example 2; details: 100 nM, positive control, WM-266-4, example 2
# Procedure: The characterization of the interaction between compound (I) and compound (II) was studied using western blotting method measuring the expression of cleaved PARP which allows to investigate apoptosis by detecting the cleavage of the PARP protein.
# (§1) The human melanoma WM-266-4 cell line was purchased at ATCC (Ref number CRL-1676 Batch 3272826). The WM-266-4 cells were cultured in RPMI1640 medium supplemented with 10% FBS and 2 mM L-Glutamine.
# They were diluted following a 10 fold step dilution in DMSO in order to obtain a 1 mM solution. Then each solution at 10 mM and 1 mM was diluted 50-fold in culture medium containing 10% serum before being added onto cells with a 20-fold dilution factor to reach final concentrations of 10,000 nM and 1,000 nM. The final DMSO concentration was 0.1% in controls and in all treated wells.
# WM-266-4 cells were seeded into 6-well microplates at 1 000 000 cells per well, in complete culture medium and incubated at 37° C., 5% CO2, overnight.
# At the end of cell treatment period, adherent cells as well as cells in the cell culture supernatant were lysed for the preparation of the proteins. Cells were lysed in a lysis buffer containing Hepes 50 mM, NaCl 150 mM, Glycerol 10%, Triton 1%, pH=7.5, adding extemporaneously a cocktail of protease and phosphatase inhibitors diluted 100 fold. Protein concentrations in each sample were determined using microBCA technique according to manufacturer's instructions. Western blotting was performed loading 20 μg of proteins in each gel well, and according to the operating procedure. […] After western blotting revelation according to the operating procedure instructions, luminescence was read using FujiFilm (Ray Test) apparatus.
# This instrument measures the total signal of luminescence obtained on Fujifilm machine (AU) for each selected band. Then, it subtracts the background value (BG) proportional to the size of the selected band or Area. The background is calculated from a band taken on the specific background of the western blot, to obtain the specific signal or (AU−BG) for each band. The calculation of the fold induction is performed for each treatment with compound or combination of compounds using the following formula:
# Fold Induction=((AU−BG)t/(AU−BG)st)*100
# [2] = tested on: human melanoma cell line A2058; test: In vitro pro-apoptotic activity (PARP cleavage western blot) in A2058, example 4
# Procedure: (§2) The characterization of the interaction between compound (I) and compound (II) was studied using western blotting method which allows investigating apoptosis by detecting the cleavage of the PARP protein.
# (§3) The human melanoma A2058 cell line was purchased at ATCC (Ref number CRL-11147 Batch 5074651). The A2058 cells were cultured in DMEM High glucose medium supplemented with 10% FBS and 2 mM L-Glutamine.
# (§4) Cell treatment, Western Blot experiment and calculation of apoptosis fold induction were performed according to the material and method described in example 2.
# [3] = tested on: human melanoma cell line A2058; test: In vitro pro-apoptotic activity (PARP cleavage) in A2058 in a concentration-dependent manner, example 6; details: single agent 100 nM, A2058, example 6
# Procedure: as §2, §3, §4
# [4] = tested on: human melanoma cell line WM-266-4; test: In vitro pro-apoptotic activity (PARP cleavage) in WM-266-4 in a concentration-dependent manner, example 5; details: single agent 100 nM, WM-266-4, example 5
# Procedure: as §2, §1
# They were diluted following two 10-fold step dilution in DMSO in order to obtain a 1 mM solution and a 0.1 mM solution Then each solution at 10 mM, 1 mM or 0.1 mM was diluted 50-fold in culture medium containing 10% serum before being added onto cells with a 20-fold dilution factor to reach final concentrations of 10,000 nM, 1,000 nM and 100 nM. The final DMSO concentration was 0.1% in controls and in all treated wells.
# as §4
smiles,measurement,setting,value
CC(=O)O[C@@]12CO[C@@H]1C[C@H](O)[C@@]1(C)C(=O)[C@H](O)C3=C(C)[C@@H](OC(=O)[C@H](O)[C@@H](NC(=O)OC(C)(C)C)c4ccccc4)C[C@@](O)([C@@H](OC(=O)c4ccccc4)[C@H]21)C3(C)C [Taxotere],PARP cleavage signal (AU-BG),[1],2054900 AU-BG
same,fold induction at 0.1 µM,[1]; Homo sapiens,2.88
same,PARP cleavage signal (AU-BG),"[2]; 100 nM, positive control, A2058, example 4",3563893 AU-BG
same,fold induction at 0.1 µM,"[2]; Homo sapiens, A2058, read-out: Fold induction of PARP cleavage",1.66
same,fold induction at 0.1 µM,[3]; Homo sapiens,6.79
same,PARP cleavage signal (AU-BG),[3],14448019 AU-BG
same,fold induction at 0.1 µM,[4]; Homo sapiens,1.56
same,PARP cleavage signal (AU-BG),[4],399272 AU-BG
